The source made the active and inactive calls. How the calls were made is not given here.
biological target: Bcl-2-like protein 1 (Homo sapiens) (UniProt Q07817); assay: Bim-Bcl-XL interaction inhibitors, potency, dose response, biochemical, multiplexed, bead flow cytometry, human Bcl-XL (AID 1322); conditions: Bead-based flow cytometry, Bim peptide-Bcl-XL binding, MCF; on inhibition: test concentration not given here
Sequence (Q07817 whole entry, looked up): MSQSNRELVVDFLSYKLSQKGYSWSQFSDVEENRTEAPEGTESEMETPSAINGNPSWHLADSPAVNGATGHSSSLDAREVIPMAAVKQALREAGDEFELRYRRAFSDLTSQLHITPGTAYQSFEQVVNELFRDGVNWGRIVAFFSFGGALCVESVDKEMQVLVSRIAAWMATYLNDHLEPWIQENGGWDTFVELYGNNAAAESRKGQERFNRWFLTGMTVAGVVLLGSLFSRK

SMILES | outcome
COc1ccc(S(=O)(=O)NCCOc2cccc3cccnc23)cc1OC | inactive
C=CS(=O)c1sc(Cl)c(N2CCOCC2)c1[N+](=O)[O-] (stereo not drawn) | inactive
Cc1ccc(C)c(NC(=O)C(=O)NCc2ccccn2)c1 | inactive
O=C1c2ccccc2C(=O)c2cc(S(=O)(=O)Nc3ccccc3)ccc21 | inactive
Cc1ccc(C(=O)N(CCCN(C)C)c2nc3ccc(Cl)cc3s2)cc1C | inactive
O=C(Cn1c(-c2ccccc2)noc1=O)N1CCC(Cc2ccccc2)CC1 | inactive
O=C(O)c1cccc(NC2=C(Cl)C(=O)c3ccccc3C2=O)c1 | inactive
COc1ccc(-c2csc(NC(=O)/C(N=Nc3ccccc3)=C(\C)O)n2)cc1 | inactive
Cc1nn(-c2ccc(Cl)c(Cl)c2)c(C)c1C(=O)O | inactive
CC(C)CCN1CCN(Cc2cccc3cccnc23)CC1CCO (stereo not drawn) | inactive
CN(C)CCNC(=O)C(=O)C1C(=O)Nc2ccccc21 (stereo not drawn) | inactive
Clc1ccc(N=c2ssnc2Cl)nc1 | inactive
CN=C(NC1CCCCC1)c1ccc(Cl)cc1 | inactive
Cc1cc(N2CCN(C)CC2)nc2ccc(NC(=S)N3CCC4(CC3)OCCO4)cc12 | inactive
O=C(C1=NN[C@@H]2C(=O)N(c3cccc(F)c3)C(=O)[C@H]12)c1ccc2ccccc2n1 | inactive
O=[N+]([O-])c1ccc2[nH]nc(-c3ccccc3)c2c1 | inactive

same assay, conditions: Bead-based flow cytometry, Bim peptide-Bcl-XL binding, MCF

SMILES | inhibition
Cc1ccccc1-n1nc(SCC(=O)O)sc1=S | inactive
CCOc1cc(/C=N/NC(=O)c2cccs2)cc([N+](=O)[O-])c1O | inactive
O=C(N/N=C/c1ccncc1)c1cccc(NC(=O)c2ccccc2Cl)c1 | inactive
Cc1nnc(NCc2n[nH]c(=O)c3ccccc23)c2ccccc12 | inactive
COc1cccc2c1C(=O)C=C(C)C2=O | inactive
O=[N+]([O-])c1c(NCCO)cc(Sc2nc3ccccc3s2)c2nonc12 | inactive
CN(C(=O)NC1CCCCC1)c1ccccc1 | inactive
CN1N=C(C(=O)N2CCCC(C(=O)c3cccc(C(F)(F)F)c3)C2)CCC1=O (stereo not drawn) | inactive
NC(=O)CSc1nnc(Cn2cnc3ccccc32)o1 | inactive
c1ccc2c(N3CCOCC3)nc(N3CCOCC3)nc2c1 | inactive
CCOC(=O)CSc1nnc(-c2cccc(Cl)c2)n1CC | inactive
O=C(Nc1nccs1)c1ccc(COc2ccc(F)cc2)o1 | inactive
Cc1ccc(/C=N/N(C)C2=NS(=O)(=O)c3ccccc32)o1 | inactive
c1ccc(-c2nc(N3CCOCC3)s[n+]2-c2ccccc2)cc1 | inactive
Cn1c(CNc2nc(-c3ccccc3)cs2)nnc1SCC(=O)N1CCc2ccccc21 | inactive
O=C(CNC(=O)c1ccco1)NCC(=O)OCc1ccccc1Br | inactive
Cc1ccc(/C=C2/NC(=O)N(Cc3ccc(Br)cc3)C2=O)o1 | inactive
COC(=O)c1ccc(C)c(NC(=O)CCNC(=O)c2ccc([N+](=O)[O-])cc2)c1 | inactive
Cc1ccc(N=c2ssnc2Cl)cc1 | inactive
CCN(CC)c1ccc(NC(=O)c2ccccc2F)cc1S(=O)(=O)Nc1ccccc1OC | inactive
OC(COc1ccc2ccccc2c1)CN1CCCC1 (stereo not drawn) | inactive
Cc1cc(C)nc(/N=C(\N)N2CCc3ccccc32)n1 | inactive

SMILES | inhibition
Cc1ccc(C(=O)N/N=C2/NC(=O)CC(C(=O)Nc3ccccc3)S2)cc1 (stereo not drawn) | inactive
COc1ccc2nc(NC(=O)c3ccc(-c4cccc([N+](=O)[O-])c4)o3)sc2c1 | inactive
COc1cc(/C=C2\S/C(=N/S(=O)(=O)c3ccc(C)cc3)NC2=O)c([N+](=O)[O-])cc1OC | inactive
COc1ccccc1Nc1nc(-c2c(C)nc3ncccn23)cs1 | inactive
CCN(CC)S(=O)(=O)c1cccc(C(=O)N/N=C/c2ccc(O)c(O)c2O)c1 | inactive
C/C(=N\NC(=O)COc1ccc(C(C)(C)C)cc1)c1ccc2c(c1)OCCO2 | inactive
O=C(Nc1ccccc1)Nc1ccc2ncoc2c1 | inactive
Cc1ccc(N=C2NC(=O)/C(=C/C=C/c3ccco3)S2)cc1 | inactive
CCn1cc(C=C2C(=O)c3ccccc3C2=O)c2ccccc21 | inactive
CCCC1(C(=O)OCC)NC(c2cc(OC)c(OC)c(OC)c2)C2C(=O)N(CC)C(=O)C21 (stereo not drawn) | inactive
COc1ccc(/C=C(/C(=O)c2cccs2)N2C=CC=CC2=C(C#N)C#N)cc1 | inactive
CC[n+]1c(/C=C/C=C/N(C(C)=O)c2ccccc2)sc2ccccc21 | inactive
Cn1c(N)c(C(=O)COC(=O)c2cc(-c3ccco3)nc3ccccc23)c(=O)n(Cc2ccccc2)c1=O | inactive
N#Cc1ccc(N=c2ssnc2Cl)cc1 | inactive
CC(C)(C)OC(=O)N1CCN(C(=O)[C@H](Cc2ccc(O)cc2)n2cc(CCO)nn2)CC1 | inactive
Cc1nc2cc(F)ccc2n1C1CCN(C(=O)c2c(F)cccc2F)CC1 | inactive
Cc1ccc(-c2cc(C(=O)N3CCN(c4ncccn4)CC3)c3cc(Br)ccc3n2)o1 | inactive
CN(CC(=O)O/N=C(\N)c1ccc([N+](=O)[O-])cc1)S(=O)(=O)c1ccccc1 | inactive
COc1ccc2c3c(cccc13)N(C)N=C2C | inactive
Cc1ccc(-n2c(CSc3nc(C)cc(C)n3)nnc2SCC(=O)NCc2ccco2)cc1 | inactive
Clc1ccc2c(N/N=C/c3cccc(Br)c3)ccnc2c1 | inactive
Cc1sc(NC(=O)Cn2cnnn2)nc1-c1ccc(Cl)cc1 | inactive

SMILES | inhibition
Cc1ccc(CC(=O)OCCNC(=O)c2cccnc2)cc1 | inactive
Cc1[nH]c2ccccc2c1C(=O)COC(=O)c1c(-c2c(F)cccc2Cl)noc1C | inactive
Cc1nc(NC(=O)CC(C)C)sc1-c1csc(Nc2ccc(Cl)cc2)n1 | inactive
Nc1c(C(=O)NCc2ccco2)sc2nc3c(cc12)C(=O)CCC3 | inactive
CCN(CC)c1ccc(NC(=O)c2cccc(C)c2)cc1S(=O)(=O)Nc1ccccc1OC | inactive
COc1ccc(/C=C/C(=O)Nc2sc(Cc3ccccc3)c(C)c2C(N)=O)cc1 | inactive
CC1Cc2ccccc2N1C(=O)CSc1nnnn1-c1ccc2c(c1)OCCO2 (stereo not drawn) | inactive
CC1(C)SC(=S)N(NC(=O)Nc2ccccc2)C1N(O)C(=O)Nc1cccc2ccccc12 (stereo not drawn) | inactive
Cc1cc(C)cc(-n2c(C)nc3cc(C(=O)O)ccc32)c1 | inactive
O=c1[nH]c(SCc2nc3ccccc3c(=O)n2-c2ccccc2C(F)(F)F)nc2ccccc12 | inactive
COc1ccc(NC(=O)c2ccco2)cc1NC(=O)c1ccco1 | inactive
CCc1nnc(NC(=O)CSc2nnc(COc3ccc(C)cc3)n2-c2ccccc2)s1 | inactive
CC1(C)CC(=O)C(C=NCCN2CCN(CCc3ccccc3)CC2)=C(O)C1 | inactive
CCOc1cccc(CNc2ccc(O)cc2)c1OCc1ccc(Cl)cc1 | inactive
COc1ccccc1-n1c(-c2cc(-c3ccc(F)cc3)n[nH]2)n[nH]c1=S | inactive
Cc1ccc(SCCC(=O)Nc2ccc(Br)c(C)c2)cc1 | inactive
O=C1/C(=C/c2cccs2)Sc2ccccc21 | inactive
CCCn1c(C)cc(-c2csc(N)n2)c1C | inactive
CC(C(=O)Nc1ccc([N+](=O)[O-])cc1)N1CCN(C/C=C/c2ccccc2)CC1 (stereo not drawn) | inactive
CC(NC(=O)Nc1ccccn1)N1C(=O)C2C3C=CC(C3)C2C1=O (stereo not drawn) | inactive
O=C(NCc1ccccn1)c1ccc2nc(-c3ccco3)c(-c3ccco3)nc2c1 | inactive
O=C(c1ccccc1NS(=O)(=O)c1ccc(Br)s1)N1CCCC1 | inactive

SMILES | inhibition
CC(=O)Nc1ccc(NC2=C(Cl)C(=O)c3ccccc3C2=O)cc1 | inactive
CCN(CC)c1ccc(NC(=O)c2ccccc2)cc1S(=O)(=O)Nc1ccccc1OC | inactive
COc1ccc(C2C(C#N)=C(C)NC3=C2S(=O)(=O)c2ccccc23)cc1 (stereo not drawn) | inactive
Cc1[nH]nc(SCC(=O)NCc2ccc(F)cc2)c1[N+](=O)[O-] | inactive
Nc1ccc(C2=Nc3cccc4cccc(c34)N2)cc1 | inactive
O=C(C1=NN(c2ccccc2)C2C(=O)N(c3ccccc3)C(=O)C12)c1ccccc1 (stereo not drawn) | inactive
COc1ccc(NC(=O)c2cc(-c3ccc(C)o3)nc3ccccc23)cc1OC | inactive
Cc1ccc2c(c1)C1CN(C)CCC1N2C(=O)Nc1cccc(Cl)c1 (stereo not drawn) | inactive
Cc1ccc(OCC(=O)NCc2ccccn2)c(Br)c1 | inactive
O=C(O)CC/C(=C\c1cc([N+](=O)[O-])ccc1Cl)c1nc2ccccc2s1 | inactive
Cc1cccc(C(=O)N2CCC(c3nc(-c4ccc(S(=O)(=O)N5CCOCC5)cc4)no3)CC2)c1 | inactive
COc1ccc(C2CC(=O)C3=C(C2)Nc2ccccc2NC3c2coc3ccccc3c2=O)cc1OC (stereo not drawn) | inactive
O=c1c2c(n3nnnc3n1Cc1ccccc1)-c1ccccc1CC21CCCC1 | inactive
Cc1ccc(S(=O)(=O)N(C)CC(=O)N2CCc3ccccc32)cc1 | inactive
CC(=O)N1CCN(C(=O)c2ccc(-n3c(C)ccc3C)cc2)CC1 | inactive
CC(C)(C)c1nc(NCCN2CCOCC2)c2nnn(Cc3ccccc3Cl)c2n1 | inactive
CCSc1ncc(Cl)c(C(=O)Nc2sc3c(c2C(=O)NCc2cccnc2)CCCC3)n1 | inactive
Cc1ccc2cc(C)c(Sc3nnnn3-c3ccccc3)nc2c1 | inactive
COc1ccc(N2CCN(C(=O)c3cc(=O)[nH]c4ccccc34)CC2)cc1 | inactive
O=C(Nc1ccc(Cl)cn1)Nc1ccccc1F | inactive
Cc1cc2nn(-c3cccc4ccccc34)nc2cc1N | inactive
